target: T1, purified STEP46 enzyme (Homo sapiens, UniProt P54829); assay: STEP46 biochemical assay (DiFMUP fluorescence phosphatase assay); details: DiFMUP 10 μM, read-out: STEP IC50
T1 sequence (P54829 1-565): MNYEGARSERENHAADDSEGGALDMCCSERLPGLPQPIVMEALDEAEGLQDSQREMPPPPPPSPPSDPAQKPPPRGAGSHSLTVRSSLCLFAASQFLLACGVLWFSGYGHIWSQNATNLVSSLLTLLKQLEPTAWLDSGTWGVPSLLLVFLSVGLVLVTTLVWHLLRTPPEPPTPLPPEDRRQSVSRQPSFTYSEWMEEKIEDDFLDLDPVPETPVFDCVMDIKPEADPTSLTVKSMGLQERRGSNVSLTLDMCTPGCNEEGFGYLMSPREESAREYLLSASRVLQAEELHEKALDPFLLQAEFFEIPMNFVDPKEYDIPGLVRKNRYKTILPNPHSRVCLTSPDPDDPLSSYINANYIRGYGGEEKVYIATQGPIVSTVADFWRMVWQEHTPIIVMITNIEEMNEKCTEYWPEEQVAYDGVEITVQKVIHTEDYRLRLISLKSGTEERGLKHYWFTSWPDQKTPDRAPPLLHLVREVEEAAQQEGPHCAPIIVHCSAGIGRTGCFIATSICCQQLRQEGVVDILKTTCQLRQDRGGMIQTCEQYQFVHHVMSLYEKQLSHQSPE
How it was run: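 Compounds preincubated 30 min at room temperature with purified STEP46 (1 ng/well) in 50 mM Hepes, 1 mM DTT, 0.02% Brij35, then 10 μM DiFMUP (final) added for 90 min at 27 °C; 2% DMSO, fluorescence at 360/460 nm. IC50 from four-parameter fit of % inhibition; activators reported as negative % inhibition at 25, 50 and 100 uM.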

`CN(C)c1nc(-c2cccnc2)nc2ccc(-c3ccccc3[N+](=O)[O-])cc12` [Compound 1334] and `Nc1nc(-c2cccnc2)nc2ccc(-c3ccccc3Cl)cc12` [Compound 1328] cannot be ordered by IC50: > 10 µM for the first, > 10 µM for the second.

First: COc1cc(-c2ccc3nc(-c4cccnc4)nc(Nc4ccc(F)c(Cl)c4)c3c2)ccc1C [Compound 670]
Second: COc1ccc(OC)c(-c2ccc3nc(-c4cccnc4)nc(Nc4ccc(F)c(Cl)c4)c3c2)c1 [Compound 645]
The IC50 of the first is lower: < 1 µM for the first, 1 to 10 µM for the second. The first is the more potent here.

`CNc1nc(-c2cccnc2)nc2cc(-c3cc(F)cc(F)c3)c(C)cc12` [Compound 1408] and `CNc1nc(-c2cccnc2)nc2cc(-c3cccc(F)c3)c(C)cc12` [Compound 1402] fall in the same range of IC50: 1 to 10 µM for the first, 1 to 10 µM for the second.

First: COc1cc(Cl)cc(-c2ccc3nc(-c4cccnc4)nc(Nc4ccc(F)c(Cl)c4)c3c2)c1 [Compound 663]
Second: Fc1ccc(Nc2nc(-c3cccnc3)nc3ccc(-c4ccc(Cl)cc4)cc23)cc1Cl [Compound 630]
The IC50 of the first is lower: < 1 µM for the first, 1 to 10 µM for the second.

`CCOC(=O)c1sc(Nc2nc(-c3cccnc3)nc3ccc(OC)cc23)nc1-c1ccccc1` [Compound 466] and `COc1ccc2nc(-c3cccnc3)nc(Nc3nc4ccccc4n3C)c2c1` [Compound 407] fall in the same range of IC50: 1 to 10 µM for the first, 1 to 10 µM for the second.

First: COc1ccc2nc(-c3cccnc3)nc(Nc3nc(-c4cccc(Cl)c4)cs3)c2c1 [Compound 430]
Second: COc1ccc2nc(-c3cccnc3)nc(Nc3nc(-c4cccc(C(F)(F)F)c4)cs3)c2c1 [Compound 449]
The IC50 of the first is lower: < 1 µM for the first, 1 to 10 µM for the second. The first is the more potent here.

First: CC(C)Oc1cccc(-c2ccc3nc(-c4cccnc4)nc(Nc4ccc(F)c(Cl)c4)c3c2)c1 [Compound 673]
Second: NC(=O)c1cccc(-c2ccc3c(Nc4ccc(F)c(Cl)c4)nc(-c4cccnc4)nc3c2)c1 [Compound 691]
The IC50 of the first is higher: 1 to 10 µM for the first, < 1 µM for the second.

First: COc1ccc2nc(-c3cccnc3)nc(Nc3nc(CC(C)C)cs3)c2c1 [Compound 460]
Second: COc1ccc2nc(-c3cccnc3)nc(Nc3nc(-c4ccc(F)cc4)cs3)c2c1 [Compound 419]
The IC50 of the first is higher: 1 to 10 µM for the first, < 1 µM for the second.

`NC(=O)c1ccccc1Nc1nc(-c2cnccn2)nc2ccc(Cl)cc12` [Compound 1157] and `NC(=O)c1ccccc1Nc1nc(-c2cnccn2)nc2cc(Cl)ccc12` [Compound 1143] fall in the same range of IC50: 1 to 10 µM for the first, 1 to 10 µM for the second.

`CC(=O)Nc1nc(-c2cccnc2)nc2ccc(-c3cccc(F)c3F)cc12` [Compound 1369] and `CNc1nc(-c2cccnc2)nc2ccc(-c3ccc(F)cc3F)cc12` [Compound 1611] fall in the same range of IC50: 1 to 10 µM for the first, 1 to 10 µM for the second.

Compared with `CNc1nc(-c2cccnc2)nc2cc(-c3ccccc3Cl)ccc12` [Compound 1352], `CNc1nc(-c2cccnc2)nc2cc(-c3ccc(F)cc3)ccc12` [Compound 1360] is lower in IC50: > 10 µM for the first, 1 to 10 µM for the second.

First: COc1ccc2nc(-c3ccnnc3)nc(Nc3ccc(F)c(Cl)c3)c2c1 [Compound 1185]
Second: Clc1ccc(Nc2nc(-c3ccnnc3)nc3ccccc23)cc1Cl [Compound 1215]
The IC50 of the first is higher: 1 to 10 µM for the first, < 1 µM for the second. The second is the more potent here.

Compared with `COc1ccc2nc(-c3cccnc3)nc(Nc3ccc4ccc(=O)[nH]c4c3C)c2c1` [Compound 343], `COc1ccc2nc(-c3cccnc3)nc(Nc3ccc4ccsc4c3)c2c1` [Compound 309] is lower in IC50: > 10 µM for the first, 1 to 10 µM for the second.

First: COc1cccc(-c2ccc3nc(-c4cccnc4)nc(Oc4ccc(F)c(Cl)c4)c3c2)c1 [Compound 390]
Second: N#Cc1cccc(-c2ccc3c(Nc4ccc(F)c(Cl)c4)nc(-c4cccnc4)nc3c2)c1 [Compound 686]
The IC50 of the first is higher: 1 to 10 µM for the first, < 1 µM for the second.

`COc1ccc2nc(-c3cccnc3)nc(Nc3cc(-c4ccc(Cl)cc4)nn3C)c2c1` [Compound 403] and `COc1ccc2nc(-c3cccnc3)nc(Nc3nc(-c4ccc(Br)cc4)cs3)c2c1` [Compound 415] fall in the same range of IC50: 1 to 10 µM for the first, 1 to 10 µM for the second.

`Clc1ccc2c(Nc3ccc(Cl)c(Cl)c3)nc(-c3cnccn3)nc2c1` [Compound 1140] and `Fc1ccc(Nc2nc(-c3cnccn3)nc3cc(Cl)ccc23)cc1Cl` [Compound 1141] cannot be ordered by IC50: < 1 µM for the first, < 1 µM for the second.

`CNc1nc(-c2cccnc2)nc2cc(-c3cccc(OC)c3)c(C)cc12` [Compound 1412] and `CNc1nc(-c2cccnc2)nc2c(C)c(-c3cccc(OC)c3)ccc12` [Compound 1456] fall in the same range of IC50: 1 to 10 µM for the first, 1 to 10 µM for the second.

`NC(=O)c1ccccc1Nc1nc(-c2cccnc2)nc2cc(-c3cccc(F)c3F)ccc12` [Compound 705] and `NC(=O)c1ccccc1Nc1nc(-c2cccnc2)nc2cc(-c3ccc(F)cc3F)ccc12` [Compound 704] cannot be ordered by IC50: < 1 µM for the first, < 1 µM for the second.

First: NC(=O)c1ccccc1Nc1nc(-c2cccnc2)nc2cc(-c3cc(F)cc(F)c3)ccc12 [Compound 707]
Second: NC(=O)c1ccccc1-c1ccc2c(Nc3ccc(F)c(Cl)c3)nc(-c3cccnc3)nc2c1 [Compound 683]
The IC50 of the first is lower: < 1 µM for the first, 1 to 10 µM for the second. The first is the more potent here.

Compared with `Fc1ccc(Nc2nc(-c3cccnc3)nc3cc(-c4ccccc4F)ccc23)cc1Cl` [Compound 687], `Fc1ccc(Nc2nc(-c3cccnc3)nc3cc(-c4cccc(F)c4F)ccc23)cc1Cl` [Compound 697] is higher in IC50: < 1 µM for the first, 1 to 10 µM for the second. The first is the more potent here.

`Cc1cc(Cl)cc2c(Nc3ccccc3C(N)=O)nc(-c3cnccn3)nc12` [Compound 1226] and `Cc1cccc2c(Nc3cccc(C#N)c3)nc(-c3cnccn3)nc12` [Compound 1181] fall in the same range of IC50: 1 to 10 µM for the first, 1 to 10 µM for the second.

`CNc1nc(-c2cccnc2)nc2cc(-c3cc(F)ccc3F)c(C)cc12` [Compound 1406] and `CNc1nc(-c2cccnc2)nc2ccc(-c3cc(F)c(F)cc3F)cc12` [Compound 1376] fall in the same range of IC50: 1 to 10 µM for the first, 1 to 10 µM for the second.

`COc1ccc2nc(-c3cccnc3)nc(Nc3nc(-c4ccc(OC(F)(F)F)cc4)cs3)c2c1` [Compound 442] and `COc1ccc2nc(-c3cccnc3)nc(Nc3nc(-c4ccc(C(F)(F)F)cc4)cs3)c2c1` [Compound 443] cannot be ordered by IC50: < 1 µM for the first, < 1 µM for the second.

`Fc1ccc(F)c(-c2ccc3c(Nc4ccc(F)c(Cl)c4)nc(-c4cccnc4)nc3c2)c1` [Compound 676] and `Cc1ccc(F)c(-c2ccc3nc(-c4cccnc4)nc(Nc4ccc(F)c(Cl)c4)c3c2)c1` [Compound 669] cannot be ordered by IC50: < 1 µM for the first, < 1 µM for the second.

First: CNc1nc(-c2cccnc2)nc2ccc(-c3ccc(OC)cc3)c(C)c12 [Compound 1458]
Second: CNc1nc(-c2cccnc2)nc2c(C)c(-c3ccc(OC)cc3)ccc12 [Compound 1455]
The IC50 of the first is higher: > 10 µM for the first, 1 to 10 µM for the second.

`c1cncc(-c2ccc3nc(-c4cccnc4)nc(Nc4ccc5ccsc5c4)c3c2)c1` [Compound 313] and `Fc1ccc(Nc2nc(-c3cccnc3)nc3ccc(-c4ccncc4)cc23)cc1Cl` [Compound 651] cannot be ordered by IC50: < 1 µM for the first, < 1 µM for the second.

`CNc1nc(-c2cccnc2)nc2ccc(-c3ccc(F)c(C(F)(F)F)c3)cc12` [Compound 1401] and `Fc1ccc(-c2ccc3nc(-c4cccnc4)nc(Nc4ccc(F)c(Cl)c4)c3c2)cc1` [Compound 638] fall in the same range of IC50: 1 to 10 µM for the first, 1 to 10 µM for the second.

`CNc1nc(-c2ccnnc2)nc2ccc(-c3ccc(F)cc3F)cc12` [Compound 1238] and `CNc1nc(-c2ccncc2)nc2ccc(-c3ccc(F)cc3F)cc12` [Compound 1467] fall in the same range of IC50: 1 to 10 µM for the first, 1 to 10 µM for the second.

First: N#Cc1ccccc1-c1ccc2c(Nc3ccc(F)c(Cl)c3)nc(-c3cccnc3)nc2c1 [Compound 685]
Second: N#Cc1ccc(-c2ccc3c(Nc4ccc(F)c(Cl)c4)nc(-c4cccnc4)nc3c2)cc1 [Compound 690]
The IC50 of the first is lower: < 1 µM for the first, 1 to 10 µM for the second. The first is the more potent here.

First: Fc1ccc(-c2ccc3c(Nc4cccc(OC(F)(F)F)c4)nc(-c4cccnc4)nc3c2)cc1 [Compound 708]
Second: Fc1ccc(-c2ccc3c(Nc4ccc(F)c(Cl)c4)nc(-c4cccnc4)nc3c2)cc1 [Compound 689]
The IC50 of the first is higher: 1 to 10 µM for the first, < 1 µM for the second.

First: COc1ccc2nc(-c3cccnc3)nc(Nc3ccc4sc(=O)n(C)c4c3)c2c1 [Compound 327]
Second: COc1ccc2nc(-c3cccnc3)nc(Nc3nc(-c4ccc(F)c(F)c4)cs3)c2c1 [Compound 445]
The IC50 of the first is higher: 1 to 10 µM for the first, < 1 µM for the second. The second is the more potent here.

`CNc1nc(-c2cccnc2)nc2c(C)cc(-c3ccccc3C#N)cc12` [Compound 1284] and `CNc1nc(-c2cccnc2)nc2c(C)c(-c3ccc(F)c(F)c3)ccc12` [Compound 1445] fall in the same range of IC50: 1 to 10 µM for the first, 1 to 10 µM for the second.

First: CNC(=O)c1ccc(-c2ccc3nc(-c4cccnc4)nc(Nc4ccc(F)c(Cl)c4)c3c2)cc1 [Compound 667]
Second: O=C(c1ccc(-c2ccc3nc(-c4cccnc4)nc(Nc4ccc(F)c(Cl)c4)c3c2)cc1)N1CCCCC1 [Compound 665]
The IC50 of the first is lower: < 1 µM for the first, 1 to 10 µM for the second. The first is the more potent here.

Compared with `CCOc1ccc2nc(-c3cccnc3)nc(Nc3nc(-c4cc(F)ccc4F)cs3)c2c1` [Compound 471], `CCOc1ccc2nc(-c3cccnc3)nc(Nc3nc(-c4ccc(F)c(F)c4)cs3)c2c1` [Compound 468] is lower in IC50: 1 to 10 µM for the first, < 1 µM for the second.

Compared with `COc1ccc2nc(-c3cccnc3)nc(Nc3nc(C4CCCCC4)cs3)c2c1` [Compound 433], `COc1ccc2nc(-c3cccnc3)nc(Nc3ccccc3C(=O)NCc3cccs3)c2c1` [Compound 884] is higher in IC50: 1 to 10 µM for the first, > 10 µM for the second.

`FC(F)Oc1cccc(Nc2nc(-c3cnccn3)nc3cc(Cl)ccc23)c1` [Compound 1145] and `COc1ccc2nc(-c3cnccn3)nc(Nc3cccc(C#N)c3)c2c1` [Compound 1193] fall in the same range of IC50: 1 to 10 µM for the first, 1 to 10 µM for the second.

For `Fc1ccc(Nc2nc(-c3cccnc3)nc3cc(-c4cncnc4)ccc23)cc1Cl` [Compound 678], the IC50 was 1 to 10 µM.

Source: patent US9630947B2, “Therapeutic compounds and related methods of use” (OTSUKA PHARMACEUTICAL CO., LTD., priority 2009, dated 2017)
